Reference: PubChem BioAssay AID1963838 (Molecular Pharmacology Branch, DTP, NCI, 2024)

System: 855422-203-R-J1-PDC complex spheroid viability
Experiment: Anticancer human tumor 855422-203-R-J1-PDC patient-derived bladder carcinoma cell line growth inhibition [POLQ]
Conditions: for IC50: curve of first compound; for viability, T/C: stronger effect = lower value
Summary of the method: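 Growth inhibition in 3D: complex spheroids (tumor PDC, HUVEC, MSC) treated with POLQ inhibitor combinations; where Cmax unknown, highest tested concentration 10 microM, except SN-38 at 1 microM.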

[1] = second compound 0.0316 µM, first compound 0.0316 µM
[2] = second compound 0.0316 µM, first compound 0.1 µM
[3] = second compound 0.0316 µM, first compound 0.316 µM
[4] = second compound 0.0316 µM, first compound 1 µM
[5] = second compound 0.0316 µM, first compound 3.16 µM
[6] = second compound 0.0316 µM, first compound 10 µM
[7] = second compound 0.1 µM, first compound 0.0316 µM
[8] = second compound 0.1 µM, first compound 0.1 µM
[9] = second compound 0.1 µM, first compound 0.316 µM
[10] = second compound 0.1 µM, first compound 1 µM
[11] = second compound 0.1 µM, first compound 3.16 µM
[12] = second compound 0.1 µM, first compound 10 µM
[13] = second compound 0.316 µM, first compound 0.0316 µM
[14] = second compound 0.316 µM, first compound 0.1 µM
[15] = second compound 0.316 µM, first compound 0.316 µM
[16] = second compound 0.316 µM, first compound 1 µM
[17] = second compound 0.316 µM, first compound 3.16 µM
[18] = second compound 0.316 µM, first compound 10 µM
[19] = second compound 1 µM, first compound 0.0316 µM
[20] = second compound 1 µM, first compound 0.1 µM
[21] = second compound 1 µM, first compound 0.316 µM
[22] = second compound 1 µM, first compound 1 µM
[23] = second compound 1 µM, first compound 3.16 µM
[24] = second compound 1 µM, first compound 10 µM
[25] = second compound 3.16 µM, first compound 0.0316 µM
[26] = second compound 3.16 µM, first compound 0.1 µM
[27] = second compound 3.16 µM, first compound 0.316 µM
[28] = second compound 3.16 µM, first compound 1 µM
[29] = second compound 3.16 µM, first compound 3.16 µM
[30] = second compound 3.16 µM, first compound 10 µM
[31] = second compound 10 µM, first compound 0.0316 µM
[32] = second compound 10 µM, first compound 0.1 µM
[33] = second compound 10 µM, first compound 0.316 µM
[34] = second compound 10 µM, first compound 1 µM
[35] = second compound 10 µM, first compound 3.16 µM
[36] = second compound 10 µM, first compound 10 µM
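Note: spheroids exposed to compounds for seven days before readout.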

## CCc1cc2c(N3CCc4c(cc(Cn5ccnc5)cc4-c4cn(C)nc4C(F)(F)F)C3=O)cc(C)nc2c(OC)n1 + COC1C(OC(N)=O)C(O)C(Oc2ccc3c(O)c(NC(=O)c4ccc(O)c(CC=C(C)C)c4)c(=O)oc3c2C)OC1(C)C
Second compound 0.0316 µM
  IC50: 2.8 µM
Second compound 0.1 µM
  IC50: 1.45 µM
Second compound 0.316 µM
  IC50: 1.64 µM
Second compound 1 µM
  IC50: 1.75 µM
Second compound 3.16 µM
  IC50: 2.12 µM
Second compound 10 µM
  IC50: 1.22 µM
[1]
  viability, T/C: 89.1%
[2]
  viability, T/C: 78.2%
[3]
  viability, T/C: 75.6%
[4]
  viability, T/C: 71.5%
[5]
  viability, T/C: 45.7%
[6]
  viability, T/C: 25.3%
[7]
  viability, T/C: 105%
[8]
  viability, T/C: 80%
[9]
  viability, T/C: 65.4%
[10]
  viability, T/C: 58.9%
[11]
  viability, T/C: 43.9%
[12]
  viability, T/C: 24.5%
[13]
  viability, T/C: 106%
[14]
  viability, T/C: 90.2%
[15]
  viability, T/C: 67.8%
[16]
  viability, T/C: 63%
[17]
  viability, T/C: 39.6%
[18]
  viability, T/C: 23.5%
[19]
  viability, T/C: 114%
[20]
  viability, T/C: 79.6%
[21]
  viability, T/C: 76.3%
[22]
  viability, T/C: 63.3%
[23]
  viability, T/C: 41.1%
[24]
  viability, T/C: 25.9%
[25]
  viability, T/C: 91.2%
[26]
  viability, T/C: 86%
[27]
  viability, T/C: 75.4%
[28]
  viability, T/C: 62%
[29]
  viability, T/C: 43.7%
[30]
  viability, T/C: 25.4%
[31]
  viability, T/C: 83.2%
[32]
  viability, T/C: 73.8%
[33]
  viability, T/C: 62.7%
[34]
  viability, T/C: 56.6%
[35]
  viability, T/C: 35.8%
[36]
  viability, T/C: 22.1%

## CCc1cc2c(N3CCc4c(cc(Cn5ccnc5)cc4-c4cn(C)nc4C(F)(F)F)C3=O)ccnc2c(OC)n1 + COC1C(OC(N)=O)C(O)C(Oc2ccc3c(O)c(NC(=O)c4ccc(O)c(CC=C(C)C)c4)c(=O)oc3c2C)OC1(C)C
Second compound 0.0316 µM
  IC50: 4.02 µM
Second compound 0.1 µM
  IC50: 3.41 µM
Second compound 0.316 µM
  IC50: 2.73 µM
Second compound 1 µM
  IC50: 2.6 µM
Second compound 3.16 µM
  IC50: 2.05 µM
Second compound 10 µM
  IC50: 2.22 µM
[1]
  viability, T/C: 83.6%
[2]
  viability, T/C: 95%
[3]
  viability, T/C: 83.4%
[4]
  viability, T/C: 69.5%
[5]
  viability, T/C: 55.9%
[6]
  viability, T/C: 34.5%
[7]
  viability, T/C: 88.2%
[8]
  viability, T/C: 82.8%
[9]
  viability, T/C: 84.1%
[10]
  viability, T/C: 66.8%
[11]
  viability, T/C: 52.6%
[12]
  viability, T/C: 28.5%
[13]
  viability, T/C: 93.3%
[14]
  viability, T/C: 80.3%
[15]
  viability, T/C: 93.2%
[16]
  viability, T/C: 75.1%
[17]
  viability, T/C: 46.7%
[18]
  viability, T/C: 31%
[19]
  viability, T/C: 87.9%
[20]
  viability, T/C: 76.9%
[21]
  viability, T/C: 71.2%
[22]
  viability, T/C: 65.1%
[23]
  viability, T/C: 46.6%
[24]
  viability, T/C: 28.6%
[25]
  viability, T/C: 89.5%
[26]
  viability, T/C: 90%
[27]
  viability, T/C: 68.9%
[28]
  viability, T/C: 67.3%
[29]
  viability, T/C: 40%
[30]
  viability, T/C: 28.1%
[31]
  viability, T/C: 99.3%
[32]
  viability, T/C: 76%
[33]
  viability, T/C: 80.3%
[34]
  viability, T/C: 72.9%
[35]
  viability, T/C: 39.3%
[36]
  viability, T/C: 31.9%

## COc1cc2cc(C(=O)CCC(=O)O)sc2cc1OC + COC1C(OC(N)=O)C(O)C(Oc2ccc3c(O)c(NC(=O)c4ccc(O)c(CC=C(C)C)c4)c(=O)oc3c2C)OC1(C)C
Second compound 0.0316 µM
  IC50: > 10 µM
Second compound 0.1 µM
  IC50: > 10 µM
Second compound 0.316 µM
  IC50: > 10 µM
Second compound 1 µM
  IC50: > 10 µM
Second compound 3.16 µM
  IC50: > 10 µM
Second compound 10 µM
  IC50: > 10 µM
[1]
  viability, T/C: 105%
[2]
  viability, T/C: 97.2%
[3]
  viability, T/C: 115%
[4]
  viability, T/C: 106%
[5]
  viability, T/C: 99.8%
[6]
  viability, T/C: 101%
[7]
  viability, T/C: 83.2%
[8]
  viability, T/C: 111%
[9]
  viability, T/C: 105%
[10]
  viability, T/C: 98.8%
[11]
  viability, T/C: 111%
[12]
  viability, T/C: 88.2%
[13]
  viability, T/C: 115%
[14]
  viability, T/C: 101%
[15]
  viability, T/C: 110%
[16]
  viability, T/C: 106%
[17]
  viability, T/C: 113%
[18]
  viability, T/C: 101%
[19]
  viability, T/C: 104%
[20]
  viability, T/C: 105%
[21]
  viability, T/C: 90.5%
[22]
  viability, T/C: 109%
[23]
  viability, T/C: 99.5%
[24]
  viability, T/C: 94.6%
[25]
  viability, T/C: 98%
[26]
  viability, T/C: 102%
[27]
  viability, T/C: 110%
[28]
  viability, T/C: 111%
[29]
  viability, T/C: 114%
[30]
  viability, T/C: 86.4%
[31]
  viability, T/C: 104%
[32]
  viability, T/C: 107%
[33]
  viability, T/C: 105%
[34]
  viability, T/C: 104%
[35]
  viability, T/C: 95.7%
[36]
  viability, T/C: 82.8%

## COc1ccc([C@@H](O)c2cc(-c3ncnc4cc(N5CCOCC5)ccc34)c(F)cc2Cl)nn1 + COC1C(OC(N)=O)C(O)C(Oc2ccc3c(O)c(NC(=O)c4ccc(O)c(CC=C(C)C)c4)c(=O)oc3c2C)OC1(C)C
Second compound 0.0316 µM
  IC50: 6.47 µM
Second compound 0.1 µM
  IC50: 6.5 µM
Second compound 0.316 µM
  IC50: 6.58 µM
Second compound 1 µM
  IC50: 6.17 µM
Second compound 3.16 µM
  IC50: 6.5 µM
Second compound 10 µM
  IC50: 6.48 µM
[1]
  viability, T/C: 107%
[2]
  viability, T/C: 102%
[3]
  viability, T/C: 95.7%
[4]
  viability, T/C: 81.1%
[5]
  viability, T/C: 71.9%
[6]
  viability, T/C: 37.7%
[7]
  viability, T/C: 90.4%
[8]
  viability, T/C: 113%
[9]
  viability, T/C: 101%
[10]
  viability, T/C: 89.8%
[11]
  viability, T/C: 68.6%
[12]
  viability, T/C: 39.1%
[13]
  viability, T/C: 119%
[14]
  viability, T/C: 121%
[15]
  viability, T/C: 101%
[16]
  viability, T/C: 86.9%
[17]
  viability, T/C: 64.5%
[18]
  viability, T/C: 41.9%
[19]
  viability, T/C: 110%
[20]
  viability, T/C: 108%
[21]
  viability, T/C: 93.8%
[22]
  viability, T/C: 98.7%
[23]
  viability, T/C: 68.7%
[24]
  viability, T/C: 35.3%
[25]
  viability, T/C: 109%
[26]
  viability, T/C: 107%
[27]
  viability, T/C: 106%
[28]
  viability, T/C: 84.8%
[29]
  viability, T/C: 73.2%
[30]
  viability, T/C: 37.2%
[31]
  viability, T/C: 121%
[32]
  viability, T/C: 110%
[33]
  viability, T/C: 110%
[34]
  viability, T/C: 91.2%
[35]
  viability, T/C: 71.7%
[36]
  viability, T/C: 36.9%
